Measurements: patent US20150140015A1, “METHODS AND PHARMACEUTICAL COMPOSITIONS FOR THE TREATMENT OF PANCREATIC CANCER” (INSERM (Institut National de la Sante et de la Recherche …, priority 2013, published 2015)

Experiments:
parental HPAF-II cells = assay: Quantification of apoptotic cells by annexin V-PE labeling in parental HPAF-II cells; type: cell-based, human; conditions: parental HPAF-II cells; NSC-87877 50 μM
Procedure: (§1) FIGS. 5A and B. Effect of orexin-A on apoptosis in OX1R expressing recombinant OX1R/HPAF-II cells. A, Parental HPAF-II and recombinant OX1R/HPAF-II cells were challenged with (black bars) or without (white bars) 1 μM orexin-A for 48 hr in the absence or presence of the SHP-2 protein tyrosine phosphatase inhibitor, NSC-87877 (50 μM). Apoptosis was measured by determination of annexin V-PE binding. Results are expressed as the percentage of apoptotic cells, and are the means±SE of three separate experiments. ***p<0.001; ns, non-significant; B, paraformaldehyde-fixed HPAF-II cells and recombinant OX1R/HPAF-II cells were challenged with or without (Basal) 1 μM orexin-A for 48 hr. Indirect immunostaining of activated caspase-3 in parental HPAF-II cells (left panels) and recombinant OX1R/HPAF-II cells (right panels) in the presence (bottom panels) or tabsence (top panels) of orexin-A is illustrated in B.
(§2) AsPC-1, SW 1990, HPAF-II and HPAF-II/hOX1R cells (seeded at 5×10^4 cells/well) were grown in 24-well plates for 24 hr under the culture conditions described above. The culture medium was then replaced every 24 hr with fresh medium with or without orexin-A (GL Biochemicals) at a concentration of 1 μM in the presence or absence of the SHP-2 inhibitor, NSC-87877 (50 μM) (Calbiochem, VWR International SAS, France). At the end of the treatment (48 hr), apoptotic cells were determined using the Guava Nexin™ kit (Guava Technologies, Hayward, Calif., USA), which discriminates between apoptotic and non-apoptotic cells (Rouet-Benzineb P, Rouyer-Fessard C, Jarry A, et al. Orexins Acting at Native OX1 Receptor in Colon Cancer and Neuroblastoma Cells or at Recombinant OX1 Receptor Suppress Cell Growth by Inducing Apoptosis. J Biol Chem 2004; 279:45875-86), analyzed with the Guava Personal Cell Analysis (PCA) system (Merck-Millipore, Guyancourt, France), and counted (2,000 events) (Voisin et al, 2008, as above). Results are expressed as the percentage of apoptotic phycoerythrin-labelled Annexin V (Annexin V-PE) positive cells and are the means of 3 independent analyses.

AsPC-1 cells [1] = assay: Quantification of apoptotic cells by annexin V-PE labeling in AsPC-1 cells; type: cell-based, human; conditions: 48 hr; for effect of SHP-2 inhibitor on orexin-induced apoptosis: AsPC-1 cells, NSC-87877 50 μM with 1 μM orexin-A
Procedure: FIG. 4A-C. Effect of orexin-A on apoptosis in AsPC-1 cells. A, SHP-2 protein tyrosine phosphatase inhibitor, NSC-87877, blocks orexin-induced apoptosis. AsPC-1 cells were challenged with (black bars) or without (white bars) 1 μM orexin-A for 48 hr in the absence or presence of NSC-87877 (50 μM). Apoptosis was measured by determination of annexin V-PE binding, and results are expressed as the percentage of apoptotic cells; B and C: Indirect immunostaining of activated caspase-3 in AsPC-1 cells in the presence or absence of orexin-A. Paraformaldehyde-fixed AsPC-1 cells were challenged with (orexin-A) or without (basal) 1 μM orexin-A for 48 hr. Activated caspase-3 immunostaining is shown in B and scored in C. Results are means±SE of three separate experiments. ***p<0.001; ns, non-significant.
as §2

[2] = test system: HPAF-II cells expressing recombinant OX1R; assay: Quantification of apoptotic cells by annexin V-PE labeling in recombinant OX1R/HPAF-II cells; type: cell-based, human; conditions: OX1R-expressing HPAF-II cells; NSC-87877 50 μM with 1 μM orexin-A
Procedure: as §1, with “in B. […]” for “in B.”
AsPC-1, SW 1990, HPAF-II and HPAF-II/hOX1R cells (seeded at 5×10^4 cells/well) were grown in 24-well plates for 24 hr under the culture conditions described above. […] Results are expressed as the percentage of apoptotic phycoerythrin-labelled Annexin V (Annexin V-PE) positive cells and are the means of 3 independent analyses.

[3] = test system: HEK stably expressing OX1R (HEK-OX1R); assay: Cell growth of HEK-OX1R cells (cell counting); type: cell-based; conditions: 0.1 μM, 48 h
Procedure: The development of antibodies directed against OX1R were produced by a phage display strategy and the antibody selection was performed by using HEK and HEK stably expressing OX1R (HEK-OX1R) cell lines. […] Cells were incubated with 0.1 μM of OxB or antibodies for 48 h in culture medium and then cells were counted in order to estimate the cellular growth. […] We have tested the ability of antibodies to inhibit the cellular growth in cancer cell lines derived from and pancreas cancer (AsPC-1 cells).

AsPC-1 cells [4] = assay: Cell growth of AsPC-1 cells (cell counting); type: cell-based, human; conditions: 0.1 μM, 48 h; AsPC-1 cells (FIG. 9)
Procedure: FIG. 9. Effect of Orexin-B anti-OX1R antibodies on cell growth of AsPC-1 cells. Cells were incubated with 0.1 μM of OxB or antibodies for 48 h in culture medium and then cells were counted in order to estimate the cellular growth.
The aims of this study were: 1/ to investigate the presence of OX1R in human PAC cell lines and to analyze orexin-A effects in relation to apoptosis; 2/ to develop an in vivo heterotopic xenograft model from the cell lines expressing OX1R, for the study of tumor growth in response to Orexin-A. The expression of OX1R was studied at mRNA (RT-PCR), proteins (immunocytochemistry) and functional levels in 3 PAC cell lines (AsPC-1, HPAF-II and SW1990). The development of an animal model (heterotopic xenograft) from the cell line expressing OX1R, has allowed studying the effect of Orexin-A in tumor growth. Resected tumors were analyzed by immunohistochemistry. Only AsPC-1 cell line expresses OX1R.
The development of antibodies directed against OX1R were produced by a phage display strategy and the antibody selection was performed by using HEK and HEK stably expressing OX1R (HEK-OX1R) cell lines. […] Cells were incubated with 0.1 μM of OxB or antibodies for 48 h in culture medium and then cells were counted in order to estimate the cellular growth. […]

Compound	effect of SHP-2 inhibitor on apoptosis (parental HPAF-II cells)	effect of SHP-2 inhibitor on orexin-induced apoptosis (AsPC-1 cells [1])	effect of SHP-2 inhibitor on orexin-induced apoptosis (AsPC-1 cells [1]; listed as NSC 87877)	percentage of apoptotic cells (annexin V-PE) (AsPC-1 cells [1]; NSC 87877 (50 μM) in the absence of orexin-A)	percentage of apoptotic cells (annexin V-PE) (AsPC-1 cells [1]; NSC 87877 (50 μM) in the presence of 1 μM orexin-A)	effect of SHP-2 inhibitor on orexin-A-induced apoptosis [2]	reduction of HEK-OX1R cell number [3] [%]	inhibition of cell growth (AsPC-1 cells [4])
O=S(=O)(O)c1ccc2cc(N=Nc3cc(S(=O)(=O)O)c4cccnc4c3O)ccc2c1 [NSC-87877]	no effect	reverse orexin-induced apoptosis	totally abolished	4.6%±0.9	4.8%±0.5	totally abolished	–	–
orexin-B: 28 amino acid hypothalamic neuropeptide, SEQ ID NO:3	–	–	–	–	–	–	40±3	able to inhibit the cell growth
